Experiments:
[1] = human, in vivo
[2] = deaths associated with the drug before its withdrawal in August 2001; cited from earlier work

Structure (SMILES)	Median CK [1] [u/l]	rhabdomyolysis-related deaths [2]
CC(C)c1c(C(=O)Nc2ccccc2)c(-c2ccccc2)c(-c2ccc(F)cc2)n1CC[C@@H](O)C[C@@H](O)CC(=O)O [atorvastatin]	84	–
COCc1c(C(C)C)nc(C(C)C)c(/C=C/[C@@H](O)C[C@@H](O)CC(=O)O)c1-c1ccc(F)cc1 [cerivastatin]	–	approx. 100
CCC(C)(C)C(=O)O[C@H]1C[C@@H](C)C=C2C=C[C@H](C)[C@H](CC[C@@H]3C[C@@H](O)CC(=O)O3)[C@H]21 [simvastatin]	77	–
